Data set [1] deals with phospho-MAPK (Erk1/2) in DU-145 cells. The data set is described as follows: Inhibition of IGF-1 stimulated phosphorylation of MAPK in DU-145 cells (immunoblotting). It counts as cell-based. As to conditions: Homo sapiens. On the procedure:
(§1) DU-145 cells (prostate cancer) were incubated over night with the title compound in serum free medium. After stimulation for 15 minutes with IGF-1 (50 nM), the cells were lyzed and the lysates analysed by immunoblotting for phospho-MAPK and phospho-AKT.
A general note: A western blot detects proteins with antibodies after separation by electrophoresis.

The subject of data set [2] is phospho-AKT in DU-145 cells. The data set is described as follows: Inhibition of IGF-1 stimulated phosphorylation of AKT in DU-145 cells (immunoblotting). It counts as cell-based. The settings on record: Homo sapiens, 0.25 h, incubated over night in serum free medium, IGF-1 (50 nM) stimulation 15 minutes. On the procedure:
as §1

The nature of data set [3]: Solubility in a physiologically acceptable buffer (sodium phosphate buffer, pH 7.4). It counts as physicochemical. The settings on record: sodium phosphate buffer at pH 7.4. The source says: The corresponding solubility of the parent compound is about 20 microgram.
In data set [4] the target is T1, alkaline phosphatase (Bos taurus, UniProt P19111).
T1 construct: purchased Sigma-Aldrich type VII S
T1 sequence (P19111 20-506 limits assumed): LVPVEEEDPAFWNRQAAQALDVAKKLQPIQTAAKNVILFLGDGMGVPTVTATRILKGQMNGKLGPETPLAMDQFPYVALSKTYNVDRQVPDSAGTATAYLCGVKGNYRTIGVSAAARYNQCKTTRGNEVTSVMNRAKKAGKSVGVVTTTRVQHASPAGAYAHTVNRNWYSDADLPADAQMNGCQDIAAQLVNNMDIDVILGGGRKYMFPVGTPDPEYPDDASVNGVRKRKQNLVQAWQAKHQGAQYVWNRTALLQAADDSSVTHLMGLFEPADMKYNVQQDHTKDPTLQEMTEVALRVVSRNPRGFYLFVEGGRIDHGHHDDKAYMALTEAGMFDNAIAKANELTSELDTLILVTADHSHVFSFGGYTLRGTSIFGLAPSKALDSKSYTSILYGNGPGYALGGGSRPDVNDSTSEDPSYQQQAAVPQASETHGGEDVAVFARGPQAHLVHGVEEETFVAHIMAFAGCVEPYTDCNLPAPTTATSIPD
The data set is described as follows: Dephosphorylation by alkaline phosphatase in vitro. It counts as in vitro ADME. As to conditions: bovine, bovine alkaline phosphatase (type VII S, Sigma-Aldrich); phosphatase concentration of 10 units/ml, 37° C., pH 7.4; read-out: half-life time of dephosphorylation. The source says:
The ability of bovine alkaline phosphatase (type VII S, Sigma-Aldrich) to dephosphorylate the title compound was investigated in vitro. […] Intravenous administration of the title compound is consequently expected to result in a rapid formation of the active moiety (1R)-1-(3,4,5-trimethoxyphenyl)-2-formyl-5-hydroxy-6-methoxy-1,2,3,4-tetrahydroisoquinoline (see FIG. 1).

The structures appear in SMILES notation. In brackets after ≈: the same amount, converted by molar mass. Where a name gives a salt, the structure may show the parent alone. Read-outs that look alike come from different tables or passages of the source.

Here are results for 4 compounds from patent US20090099133A1, “Isoquinolines Derivatives as Igf-1R Inhibitors” (priority 2005, published 2009).

As for `COc1cc([C@@H]2c3cc4c(cc3[C@H](O)[C@H]3COC(=O)[C@@H]23)OCO4)cc(OC)c1OC` [Picropodophyllin, reference compound], the IC50 in data set [1] (standard, read-out: IC50 inhibition of phospho-MAPK (Erk1/2)) was roughly 5 µM.

A word on the melting point: it is the temperature, or range, at which the solid turns liquid. The term solubility denotes the concentration that dissolves in the medium under given conditions. The compound `COc1ccc2c(c1O)CCN(C=O)[C@@H]2c1cc(OC)c(OC)c(OC)c1` [(1R)-1-(3,4,5-trimethoxyphenyl)-2-formyl-5-hydroxy-6-methoxy-1,2,3,4-tetrahydroisoquinoline] yielded a melting point of 190 to 192 °C. Moreover, the IC50 in data set [1] (0.25 h, incubated over night in serum free medium, IGF-1 (50 nM) stimulation 15 minutes, read-out: IC50 inhibition of phosphorylation of MAPK (Erk1/2)) was determined as 0.05 µM. In data set [2], this compound came in with an IC50 of 0.04 µM. Moreover, the solubility in data set [3] (aqueous buffer, parent compound, read-out: solubility) is roughly 0.02 mg/mL (≈ 53.6 µM). Moreover, the solubility result in data set [3] (parent compound) is recorded as “about 20 microgram”.

For orientation: half-life means the time needed for the level to fall by half in the phase considered. Consider `COc1cc([C@@H]2c3ccc(OC)c(OP(=O)(O)O)c3CCN2C=O)cc(OC)c1OC` [(1R)-1-(3,4,5-trimethoxyphenyl)-2-formyl-5-(dihydrogen phosphate)-6-methoxy-1,2,3,4-tetrahydroisoquinoline], for which the solubility in data set [3] (aqueous buffer, read-out: solubility) is greater than 50 mg/mL. The half-life in data set [4] turned out to be 8 min.

For the compound `COc1cc([C@@H]2c3ccc(OC)c(OP(=O)(O)O)c3CCN2C=O)cc(OC)c1OC` (as salt: phosphate) [(1R)-1-(3,4,5-trimethoxyphenyl)-2-formyl-5-(dihydrogen phosphate)-6-methoxy-1,2,3,4-tetrahydroisoquinoline], the melting point was 138 to 141 °C.
